For one data set, the system named is PANC-1 cells. In words: Immunofluorescence staining of RAS localisation. Type of data set: cell-based, human. The settings on record: 18 h, anti-pan RAS antibody, PD3 10 µM, deltarasin 2, 5, 10 µM. An excerpt:
Finally, we investigated whether PD3 changes KRAS localisation by inhibiting the interaction of KRAS with PDEδ in human pancreatic cancer cells. PDEδ binds the farnesylated RAS proteins and stabilises them[19]. Therefore, PDEδ activity leads to the accumulation of RAS at the plasma membrane (PM); conversely, downmodulation of PDEδ enhances RAS diffusion in the cytoplasm. To confirm the effect of PD3 on the relocalization of RAS, we carried out immunofluorescence staining of PANC-1 cells with an anti-RAS antibody (Figure 6). […] Conversely, in the DMSO-treated control group, RAS was mainly localised in the PM of PANC-1 cells. […] It is supposed that PD3 can induce changes in RAS localisation from the plasma membrane by interrupting the protein–protein interaction of KRAS-PDEδ.
Figure 6. Immunofluorescence of PANC-1 cells with an anti-Pan-RAS antibody (red). DMSO was used as a negative control, and deltarasin was used as a positive control. Ex: 633 nm, Em: ≥638 nm. The scale bar represents 20 µm.
PANC-1 cells were seeded with cover slip in a 6-well cell culture plate (SPL life Science, Gyeonggi-do, Republic of Korea) and incubated for 24 h under 37 °C and 5% CO2 prior to the experiment. […] The fluorescence images were detected by confocal microscope (TCS-SP8 confocal laser scanning microscope, Leica, Germany). Fluorescence signal was obtained by excitation at 633 nm and emission at ≥638 nm.

In the next data set the target is T1, PDEδ (Homo sapiens, UniProt O43924).
T1 construct: made in house; host or cells: E. coli BL21(DE3)
Put plainly: FP-based competition binding assay using excess deltarasin. As to the method: Figure 3. Binding affinities of PDs measured by fluorescence polarisation. (A) Representative binding curve of PDs (PD3) titrated with PDEδ. The FP value was measured in PBS buffer (pH 7.2) containing 8 concentrations (0, 0.5, 1, 2, 4, 8, 16 and 32 μM) of PDEδ mixed with 0.5 μM PDs. Ex: 440 nm, Em: 526 nm; (B) Kd value and half-life of each compound; (C, D) Kinetic trace of PD3 and PD7 in the competition assay. PD3 was shown as a compound with the longest retention time (slow dissociation), whereas PD7 was shown as a compound with the shortest retention time (fast dissociation). The half-life was obtained by a competition binding assay using excess deltarasin. The optimal concentration of PDEδ for the competition assay was determined using the Kd value and PD concentration (0.5 μM) for making more than 68% of the binding complex. Ex: 430 nm, Em: 520 nm. TEXT PRINTED IN THE PICTURE: (A) PD3: Best-fit values Bmax: 261.7; Best-fit values Kd: 0.4991; Std. Error Bmax: 17.98; Std. […] Error Bmax 17.98 (last digit 8 or 6) and Std. Error Kd 0.1956 (5 and 6 not certain) / Panels C and D: k and half-life are printed without a label of their own; assigned to PD3 and PD7 from the panel legends (PDEδ+PD3+Del, PDEδ+PD7+Del)
To confirm that the PD compound occupies the same farnesylation binding site as deltarasin in PDEδ and to exclude the possibility that the FP signal resulted from non-specific hydrophobic interactions, we carried out a FP-based competition assay. PDs (0.5 µM) were incubated with the purified PDEδ protein for 2 h to ensure complete binding between the compound and the protein. Then, deltarasin was added to replace the PD compound in the prenyl binding pocket of PDEδ, which decreased the FP due to the free rotation of the released PD compound. As shown in Figure 3(B), the reverse correlation between Kd values and half-lives was observed (Figure 3(B) and Table 1). […] The rate constants and half-lives were measured only when the increased concentration of deltarasin produced concentration-independent kinetic parameters, which reflects complete displacement of the binding site with the deltarasin. The kinetic trace was fit to a single exponential decay to generate the dissociation rate constant and half-life. Given that the Kd value is a ratio of koff/kon in a simple bimolecular binding model, the measured half-life and Kd are not always matched due to the contribution from the association rate constant. Figure 3(C) (PD3) and 3 D (PD7) show a representative kinetic trace obtained in the competition assay.
Deltarasin, a well-known PDEδ inhibitor, was purchased from Chemietek (Indianapolis, IN) for the competition assay. Assay buffer and the plate were the same as used in fluorescence polarisation assay. The optimal concentration of PDEδ was determined based on the Kd values and ligand concentration (0.5 µM) to ensure the formation of ligand-protein complex. The mixture of PDEδ and compounds were incubated for 2 h at 4 °C. After adding deltarasin to the mixture, FP was immediately recorded by SpectraMax M5 microplate reader (Molecular Devices, San Jose, CA) with excitation at 430 nm and emission at 520 nm. In SpectraMax M5 microplate reader, single excitation and emission wavelengths need to be used for testing all compounds. Therefore, Ex 430/Em 520 was used for competition binding assay. The selected ex/em wavelengths have only a difference of less than 10 nm from the maximum wavelengths, and there was no critical issue for conducting assay. The kinetic trace was fit to a single exponential decay to generate dissociation rate constant and half-life.

Turning to `Cc1ccc(-c2nc3ccccc3c3cc4ccccn4c23)cc1` [PD3, 6-(p-tolyl)indolizino[3,2-c]quinoline], in the data set with PANC-1 cells, the “RAS localisation at the plasma membrane (PM)” value is on record as “red fluorescence was effectively reduced at the PM”. Further, the Half-life at PDEδ (representative kinetic trace, single exponential decay) is 45 min; on PDEδ (retention in PDEδ on displacement by excess deltarasin, 0.5 µM PD, mean ± SD of three independent experiments), 41 ± 6 min. The koff on PDEδ (representative kinetic trace, single exponential decay, read-out: dissociation rate constant k (converted)) is 0.00025 s⁻¹.

The record behind these values is paper PMC9225715, “Development of PD3 and PD3-B for PDEδ inhibition to modulate KRAS activity” (Journal of Enzyme Inhibition and Medicinal Chemistry, 2022).
